In ChEMBL document CHEMBL1134831, “2-(3,5-Dimethylphenyl)tryptamine derivatives that bind to the GnRH receptor” (Bioorg Med Chem Lett, 2001):

Target: T1, Gonadotropin-releasing hormone receptor (Rattus norvegicus, UniProt P30969)
T1 sequence (P30969 whole entry): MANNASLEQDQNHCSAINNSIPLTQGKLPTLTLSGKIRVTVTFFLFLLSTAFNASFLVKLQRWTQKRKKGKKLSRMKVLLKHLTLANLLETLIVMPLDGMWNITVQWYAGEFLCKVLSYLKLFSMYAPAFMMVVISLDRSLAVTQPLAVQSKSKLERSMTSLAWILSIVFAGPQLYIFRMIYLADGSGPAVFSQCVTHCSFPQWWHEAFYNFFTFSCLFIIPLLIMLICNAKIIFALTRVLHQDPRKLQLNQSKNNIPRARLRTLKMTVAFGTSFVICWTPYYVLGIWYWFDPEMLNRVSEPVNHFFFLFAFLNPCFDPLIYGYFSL
Assay: Inhibition of rat GnRH receptor binding

IC50 [nM] | SMILES
500 | Cc1cc(C)cc(-c2[nH]c3ccccc3c2CCNCCCCc2ccc([N+](=O)[O-])cc2)c1
300 | Cc1cc(C)cc(-c2[nH]c3ccccc3c2CCNCCCCc2ccc(N)cc2)c1
200 | CCS(=O)(=O)Nc1ccc(CCCCNCCc2c(-c3cc(C)cc(C)c3)[nH]c3ccccc23)cc1
300 | Cc1cc(C)cc(-c2[nH]c3ccccc3c2CCNCCCCc2ccc(F)cc2)c1
300 | Cc1cc(C)cc(-c2[nH]c3ccccc3c2CCNCCCCc2ccc(NS(=O)(=O)c3ccccc3)cc2)c1
40 | CCNS(=O)(=O)Nc1ccc(CCCCNCCc2c(-c3cc(C)cc(C)c3)[nH]c3ccccc23)cc1
28 | CCNC(=O)Nc1ccc(CCCCNCCc2c(-c3cc(C)cc(C)c3)[nH]c3ccccc23)cc1
48 | CNC(=O)Nc1ccc(CCCCNCCc2c(-c3cc(C)cc(C)c3)[nH]c3ccccc23)cc1
200 | CC(=O)Nc1ccc(CCCCNCCc2c(-c3cc(C)cc(C)c3)[nH]c3ccccc23)cc1
47 | CNS(=O)(=O)Nc1ccc(CCCCNCCc2c(-c3cc(C)cc(C)c3)[nH]c3ccccc23)cc1
220 | Cc1cc(C)cc(-c2[nH]c3ccccc3c2CCNCCCCc2ccc(NS(=O)(=O)C(C)C)cc2)c1
36 | Cc1cc(C)cc(-c2[nH]c3ccccc3c2CCNCCCCc2ccc(S(N)(=O)=O)cc2)c1
